According to patent publication US20080234385A1, “Method For Inhibiting Tnf-Alpha” (CARITAS ST. ELIZABETH'S MEDICAL CENTER, priority 2005, published 2008):
Entries after “also recorded” stand apart in the source; their conditions may differ.

Tested on: LPS-stimulated TNF-α production
Test: LPS-stimulated TNF-α production by THP-1-derived monocytes (ELISA)
Format: cell-based, human
Conditions: differentiated THP-1 cells, endotoxin 10 ng/ml, 24 hours; for effect on LPS-stimulated TNF-α production/synthesis (in words): rising concentrations
Description: The human promonocytic THP-1 cell line (American Type Culture Collection, Manassas, Va.) was maintained in suspension culture at 0.25×10^6 cells/ml in RPMI-1640 medium supplemented with 2 mM L-glutamine, 10% fetal bovine serum and 0.05 mM 2-mercaptoethanol in a humidified atmosphere of 5% CO2 in air at 37° C. Differentiation to monocytes (0.25×10^6 cells/ml) was induced by incubating cells with trans-retinoic acid (1 μM), 1.25 dihydroxy cholecalciferol (0.1 μM) and interferon-γ (0.01 mg/l) (Sigma, St. Louis, Mo.). After 3 days, cells were detached using trypsin-EDTA, washed in PBS, and 1×10^6 cells were used for each experimental condition.
Differentiated THP-1 cells were co-incubated with 10 ng/ml of purified Escherichia coli endotoxin (serotype O55: B5, Sigma Chemical Co.) and rising concentrations (0-400 μM) of either melatonin, N-acetyldopamine (NAD) or N-methyldopamine (NMD) or 3-hydroxy-4-methoxy-dopamine (HMP) (Sigma) in RPMI-1640 cell culture medium at 37° C. in a humidified atmosphere supplemented with 5% CO2. After 24-hour incubation, cell supematants were harvested, and TNF-α was measured by a sandwich enzyme linked immunosorbent assay (ELISA), according to the manufacturer's instructions (Quantikine®, R & D systems, Minneapolis, Minn., USA). The lower limit of detection for TNF-α was 1.6 pg/ml. The average intra-assay coefficient of variation for TNF-α was 5%.

Structure (SMILES)	effect on LPS-stimulated TNF-α production/synthesis (in words)	potency in blocking TNF-α production compared with NMD, HMP and melatonin (low-dose (1-20 μM, FIG. 1))
CNCCc1ccc(O)c(O)c1 [NMD, N-methyldopamine]	suppress LPS-stimulated TNF-α synthesis by monocytic cells in a dose-dependent manner	–
COc1ccc2[nH]cc(CCNC(C)=O)c2c1 [melatonin, reference compound]	marked decrease in LPS-stimulated TNF-α production, which was dose dependent	–
CC(=O)NCCc1ccc(O)c(O)c1 [NAD, N-acetyldopamine]	marked decrease in LPS-stimulated TNF-α production, which was dose dependent; also recorded: suppress LPS-stimulated TNF-α synthesis by monocytic cells in a dose-dependent manner	more potent in blocking TNF-α production
CC(=O)NCCc1c[nH]c2ccc(O)cc12 [NAS, N-acetyl-serotonin, reference compound]	marked decrease in LPS-stimulated TNF-α production, which was dose dependent	–
